Results: publication PMC12638514, “Identification of Novel β‐Lactam Derivatives as Proteasome Inhibitors for Antitumor Therapy” (Archiv Der Pharmazie, 2025)

How the values were obtained:
[1] = test system: rabbit 20S proteasome β5 (CT‐L); parameters: method as in PMID 24452398, PMID 21946808; conditions: Figure 2; cited from earlier work
MV‐4‐11 cells = assay: Cell proliferation inhibition assay (CCK8), MV‐4‐11; assay type: cell-based; conditions: Homo sapiens, MV4-11, 72 h, mean ± SD
Method: (§1) MV‐4‐11 cells (1 × 10^4 cells/well), RPMI‐8226 cells (8 × 10^3 cells/well), Molt4 cells (2 × 10^3 cells/well), RS4;11 cells (2 × 10^4 cells/well), and PBMC cells (2 × 10^4 cells/well) were seeded in 96‐well plates (Corning, 3599). Cells were treated with either 0.2% DMSO or fivefold dilutions of compounds from 10 mM stock solutions in DMSO (0.2% final concentration of DMSO) for 72 h. 10 μL of CCK8 reagent was added to each well, and the plates were incubated at 37°C for 3 h. Absorbance was measured at 450 nm and 650 nm using a Spectra Max Molecular Devices microplate reader. The final data were calibrated by OD450 nm‐OD650 nm.

RPMI‐8226 cells = assay: Cell proliferation inhibition assay (CCK8), RPMI‐8226; assay type: cell-based; conditions: Homo sapiens, 72 h, mean ± SD
Method: as §1

Molt4 cells = assay: Cell proliferation inhibition assay (CCK8), Molt4; assay type: cell-based; conditions: Homo sapiens, MOLT-4, 72 h, mean ± SD
Method: as §1

RS4;11 cells [2] = assay: Cell proliferation inhibition assay (CCK8), RS4;11; assay type: cell-based, human; conditions: mean ± SD
Method: as §1

[3] = test system: normal peripheral blood mononuclear cells (PBMC); assay: Cell proliferation inhibition assay (CCK8), PBMC; assay type: cell-based; conditions: 72 h, mean ± SD, read-out: IC50 PBMC‐3Day
Method: as §1

[4] = target: T1, human constitutive proteasome, β5 subunit (CT‐L) (Homo sapiens, UniProt P20618+P28074); assay: In vitro 20S proteasome chymotrypsin‐like (CT‐L, β5) inhibition assay; assay type: biochemical; conditions: CT‐L activity, substrate Suc‐LLVY‐AMC; mean ± SD of three independent experiments
T1 construct: gift of Dr. Jiang-ping Wu (Notre-Dame Hospital, Montreal)
Method: (§2) The human constitutive proteasome was generously provided by Dr. Jiang‐ping Wu (Notre‐Dame Hospital, Montreal, QC, Canada). […] The proteasome activity assay was performed in a total volume of 50 μL, with all samples diluted in Tris–HCl buffer (100 mM Tris–HCl, pH 8.0). […] 10 μL purified human proteasome (25 μg/mL) was added to 1 μL of each compound; after incubation for 15 min, the mixture was combined with 39 μL of the fluorogenic substrate. […] The IC50 values were calculated using the software GraphPad Prism4, employing the “sigmoidal dose–response (variable slope)” equation for curve fitting.

[5] = target: proteasome β1 subunit (C‐L) (Homo sapiens, UniProt P28072+Q99436); assay: Proteasome caspase‐like (C‐L, β1) inhibition; assay type: biochemical; conditions: C‐L activity; mean ± SD of three independent experiments
Method: as §2

[6] = target: proteasome β2 subunit (T‐L) (Homo sapiens, UniProt P49720+Q99436); assay: Proteasome trypsin‐like (T‐L, β2) inhibition; assay type: biochemical; conditions: T‐L activity; mean ± SD of three independent experiments
Method: as §2

RS4;11 cells [7] = assay: Apoptosis assay by flow cytometry; assay type: cell-based, human; conditions: 1, 2 and 4 μM, 12 h
Method: (§3) Apoptosis was assessed using an Annexin V‐APC/7AAD apoptosis detection kit (GA1023‐KGA1026, Keygentec, Nanjing, China), followed by flow cytometry analysis. Briefly, cells were treated with the indicated drug concentration and durations or left untreated, then washed twice with PBS, stained with Annexin V‐APC/7AAD, and analyzed using flow cytometry (CytoFLEX flow cytometer, Beckman Coulter Inc.). RS4;11 cells were exposed to various concentrations of the compound or DMSO. Protein lysates were prepared using 4 × Laemmli sample buffer (161073, BIORAD, Richmond, USA). Protein samples were separated by SDS‐polyacrylamide gel electrophoresis (BIO‐RAD, Richmond, USA) and subsequently transferred to nitrocellulose (NC) membranes. Following a 90‐min blocking step with 5% skim milk at room temperature, the NC membranes were incubated with the primary antibody at 4 °C overnight, followed by three washes with TBST for 10 min each. The NC membranes were then incubated with secondary antibodies for 1.5 h at room temperature. Signals were detected by ECL (KF8001&KF8003, Affinity, China) using the BIO‐RAD ChemiDoc Touch Imaging System.

RS4;11 cells [8] = assay: Western blot of apoptosis‐related and ubiquitinated proteins; assay type: cell-based, human
Method: as §3

Row | SMILES | IC50 (MV‐4‐11 cells) [nM] | IC50 (RPMI‐8226 cells) [nM] | IC50 (Molt4 cells) [nM] | IC50 (RS4;11 cells [2]; Homo sapiens, RS4-11, 72 h) [nM] | IC50 [4] [nM] | IC50 [5] [nM] | IC50 [6] [nM] | other results
1 | CC[C@H](C)[C@@H]1C(=O)O[C@H]1C(=O)NCCC[C@H](NC(=O)[C@H](C)N)C(=O)O [Belactosin C] | – | – | – | – | – | – | – | IC50 [1]: 210 nM
2 | CC(C)C[C@H](NC(=O)[C@H](Cc1ccccc1)NC(=O)c1cnccn1)B(O)O [Bortezomib, reference compound] | 5.15 ± 1.09 | 3.64 ± 0.52 | 13.3 ± 2.47 | 5.87 ± 0.93 | – | – | – | IC50 [3]: 1.57 ± 0.19 nM
3 | CC(C)(C)CNC(=O)C[C@H](NC(=O)c1cnccn1)C(=O)N[C@@H](CCc1ccccc1)C(=O)N[C@@H]1CN(c2ccc(F)cc2)C1=O [Compound 68] | – | – | – | – | > 10000 | – | – | –
4 | CC(C)(C)CNC(=O)C[C@H](NC(=O)c1cnccn1)C(=O)N[C@@H](CCc1ccccc1)C(=O)N[C@H]1CN(c2ccc(F)cc2)C1=O [Compound 69] | > 20000 | 10200 ± 760 | > 10000 | 1520 ± 670 | 288 ± 57.2 | > 10000 | > 10000 | –
5 | C[C@H](NC(=O)c1cccnc1)C(=O)N[C@@H](CCc1ccccc1)C(=O)N[C@@H]1CN(c2ccc(F)cc2)C1=O [Compound 70] | – | – | – | – | > 10000 | – | – | –
6 | C[C@H](NC(=O)c1cnccn1)C(=O)N[C@@H](CCc1ccccc1)C(=O)N[C@@H]1CN(c2ccc(F)cc2)C1=O [Compound 71] | – | – | – | – | > 10000 | – | – | –
7 | CC(C)[C@H](NC(=O)c1cccnc1)C(=O)N[C@@H](CCc1ccccc1)C(=O)N[C@@H]1CN(c2ccc(F)cc2)C1=O [Compound 72] | – | – | – | – | > 10000 | – | – | –
8 | O=C(N[C@@H](CCc1ccccc1)C(=O)N[C@@H](CCc1ccccc1)C(=O)N[C@@H]1CN(c2ccc(F)cc2)C1=O)c1cccnc1 [Compound 73] | – | – | – | – | > 10000 | – | – | –
9 | O=C(N[C@@H](Cc1ccccc1)C(=O)N[C@@H](CCc1ccccc1)C(=O)N[C@@H]1CN(c2ccc(F)cc2)C1=O)c1cccnc1 [Compound 74] | – | – | – | – | > 10000 | – | – | –
10 | CSCC[C@H](NC(=O)c1cccnc1)C(=O)N[C@@H](CCc1ccccc1)C(=O)N[C@@H]1CN(c2ccc(F)cc2)C1=O [Compound 75] | – | – | – | – | > 10000 | – | – | –
11 | Cc1ccc(N2C[C@@H](NC(=O)[C@H](CCc3ccccc3)NC(=O)[C@H](CC(=O)NCC(C)(C)C)NC(=O)c3cccnc3)C2=O)cc1 [Compound 76, (S)‐N ^4‐Neopentyl‐2‐(nicotinamido)‐N ^1‐[(S)‐1‐oxo‐1‐{[(R)‐2‐oxo‐1‐(p‐tolyl)azetidin‐3‐yl]amino}‐4‐phenylbutan‐2‐yl]succinamide] | > 20000 | 8050 ± 1170 | > 10000 | 860 ± 240 | 72 ± 14.9 | > 10000 | > 10000 | –
12 | CN(C)c1ccc(N2C[C@@H](NC(=O)[C@H](CCc3ccccc3)NC(=O)[C@H](CC(=O)NCC(C)(C)C)NC(=O)c3cccnc3)C2=O)cc1 [Compound 77, (S)‐N ^1‐[(S)‐1‐{[(R)‐1‐[4‐(Dimethylamino)phenyl]‐2‐oxoazetidin‐3‐yl]amino}‐1‐oxo‐4‐phenylbutan‐2‐yl]‐N ^4‐neopentyl‐2‐(nicotinamido)succinamide] | – | – | – | – | 132 ± 14.8 | > 10000 | > 10000 | –
13 | COc1ccc(N2CC(NC(=O)C(CCc3ccccc3)NC(=O)C(CC(=O)NCC(C)(C)C)NC(=O)c3cccnc3)C2=O)cc1 [Compound 78, (S)‐N ^1‐[(S)‐1‐{[(R)‐1‐(4‐Methoxyphenyl)‐2‐oxoazetidin‐3‐yl]amino}‐1‐oxo‐4‐phenylbutan‐2‐yl]‐N ^4‐neopentyl‐2‐(nicotinamido)succinimide] | 2780 ± 410 | 2340 ± 340 | 3780 ± 270 | < 1000 | 142 ± 30.1 | > 10000 | > 10000 | IC50 (RS4;11 cells [2]; 72 h): 500 ± 130 nM; IC50 [3]: 17200 ± 1930 nM; induction of apoptosis in RS4;11 cells (RS4;11 cells [7]): triggered cell apoptosis in a dose‐dependent manner; activation and cleavage of caspase‐3 and PARP (RS4;11 cells [8]; RS4;11, 1, 2 and 4 μM, 8 h, western blot): detectable across all samples; accumulation of poly‐ubiquitinated proteins (RS4;11 cells [8]; RS4;11, western blot): significant accumulation of poly‐ubiquitinated proteins
14 | CC(C)(C)CNC(=O)C[C@H](NC(=O)c1cccnc1)C(=O)N[C@@H](CCc1ccccc1)C(=O)N[C@@H]1CN(c2ccc(C(F)(F)F)cc2)C1=O [Compound 79, (S)‐N ^4‐Neopentyl‐2‐(nicotinamido)‐N ^1‐[(S)‐1‐oxo‐1‐{[(R)‐2‐oxo‐1‐[4‐(trifluoromethyl)phenyl]azetidin‐3‐yl]amino}‐4‐phenylbutan‐2‐yl]succinamide] | 2750 ± 460 | 3440 ± 440 | 2370 ± 230 | 990 ± 170 | 282 ± 33.6 | > 10000 | > 10000 | –
